Experimental data as given in PubChem BioAssay AID1259407 (Chemical Carcinogenesis Research Information System (CCRIS), 2018).
The source made the active and inactive calls. No rule for the calls is given here.

Test system: CCRIS mutagenicity, Ames/micronucleus/aberration tests
Test: CCRIS mutagenicity studies
[1] = Test System: AMES SALMONELLA TYPHIMURIUM, Strain/Indicator: TA98, Metabolic Activation: NONE, Method: PREINCUBATION
[2] = Test System: AMES SALMONELLA TYPHIMURIUM, Strain/Indicator: TA100, Metabolic Activation: NONE, Method: PREINCUBATION
[3] = Test System: AMES SALMONELLA TYPHIMURIUM, Strain/Indicator: TA1535, Metabolic Activation: NONE, Method: PREINCUBATION

In the case of `CC(C)c1ccccc1OP(=O)(Oc1ccccc1)Oc1ccccc1`, the mutagenic call (Test System: AMES SALMONELLA TYPHIMURIUM, Strain/Indicator: TA97, Metabolic Activation: HAMSTER, LIVER, S-9, AROCLOR 1254 (10 OR 30%), Method: PREINCUBATION) is reported as “inactive; negative”, the mutagenic call (Test System: AMES SALMONELLA TYPHIMURIUM, Strain/Indicator: TA97, Metabolic Activation: NONE, Method: PREINCUBATION) is reported as “inactive; negative” and the mutagenic call (Test System: AMES SALMONELLA TYPHIMURIUM, Strain/Indicator: TA97, Metabolic Activation: RAT, LIVER, S-9, AROCLOR 1254 (10 OR 30%), Method: PREINCUBATION) is reported as “inactive; negative”. For the same compound, the mutagenic call (Test System: AMES SALMONELLA TYPHIMURIUM, Strain/Indicator: TA98, Metabolic Activation: HAMSTER, LIVER, S-9, AROCLOR 1254 (10 OR 30%), Method: PREINCUBATION) was “inactive; negative”, the mutagenic call [1] was “inactive; negative” and the mutagenic call (Test System: AMES SALMONELLA TYPHIMURIUM, Strain/Indicator: TA98, Metabolic Activation: RAT, LIVER, S-9, AROCLOR 1254 (10 OR 30%), Method: PREINCUBATION) was “inactive; negative”. The mutagenic call (Test System: AMES SALMONELLA TYPHIMURIUM, Strain/Indicator: TA100, Metabolic Activation: HAMSTER, LIVER, S-9, AROCLOR 1254 (10 OR 30%), Method: PREINCUBATION) was “inactive; negative”, the mutagenic call [2] was “inactive; negative” and the mutagenic call (Test System: AMES SALMONELLA TYPHIMURIUM, Strain/Indicator: TA100, Metabolic Activation: RAT, LIVER, S-9, AROCLOR 1254 (10 OR 30%), Method: PREINCUBATION) was “inactive; negative”. The mutagenic call (Test System: AMES SALMONELLA TYPHIMURIUM, Strain/Indicator: TA1535, Metabolic Activation: HAMSTER, LIVER, S-9, AROCLOR 1254 (10 OR 30%), Method: PREINCUBATION) was “inactive; negative”, the mutagenic call [3] was “inactive; negative” and the mutagenic call (Test System: AMES SALMONELLA TYPHIMURIUM, Strain/Indicator: TA1535, Metabolic Activation: RAT, LIVER, S-9, AROCLOR 1254 (10 OR 30%), Method: PREINCUBATION) was “inactive; negative”.
For `Clc1ccnc2ccccc12`, the mutagenic call (Test System: AMES SALMONELLA TYPHIMURIUM, Strain/Indicator: TA100, Metabolic Activation: RAT, LIVER, S-9, PHENOBARBITAL AND 5,6-BENZOFLAVONE, Method: PREINCUBATION) was “active; positive”.
With `CN(N=O)C(=O)Nc1ccc(Cl)cc1` the mutagenic call (End Point: IN VITRO CHROMOSOMAL ABERRATIONS, Test System: CHINESE HAMSTER V79-E CELLS, Metabolic Activation: NONE) was “active; weakly positive”.
For `NC(=Nc1ccccc1)Nc1ccccc1`, the mutagenic call (Test System: AMES SALMONELLA TYPHIMURIUM, Strain/Indicator: TA98, Metabolic Activation: HAMSTER, LIVER, S-9, AROCLOR 1254, Method: STANDARD PLATE) was “active; positive”, the mutagenic call [1] was “inactive; negative” and the mutagenic call (Test System: AMES SALMONELLA TYPHIMURIUM, Strain/Indicator: TA98, Metabolic Activation: NONE, Method: STANDARD PLATE) was “inactive; negative”. The mutagenic call (Test System: AMES SALMONELLA TYPHIMURIUM, Strain/Indicator: TA98, Metabolic Activation: RAT LIVER S-9, PHENOBARBITAL AND BETA-NAPHTHOFLAVONE, Method: PREINCUBATION) was “inactive; negative”, the mutagenic call (Test System: AMES SALMONELLA TYPHIMURIUM, Strain/Indicator: TA98, Metabolic Activation: RAT, LIVER, S-9, AROCLOR 1254, Method: STANDARD PLATE) was “inactive; negative” and the mutagenic call (Test System: AMES SALMONELLA TYPHIMURIUM, Strain/Indicator: TA98, Metabolic Activation: S-9, Method: STANDARD PLATE) was “inactive; negative”. For the same compound, the mutagenic call (Test System: AMES SALMONELLA TYPHIMURIUM, Strain/Indicator: TA100, Metabolic Activation: HAMSTER, LIVER, S-9, AROCLOR 1254, Method: STANDARD PLATE) was “active; positive”, the mutagenic call [2] was “inactive; negative” and the mutagenic call (Test System: AMES SALMONELLA TYPHIMURIUM, Strain/Indicator: TA100, Metabolic Activation: NONE, Method: STANDARD PLATE) was “inactive; negative”. The mutagenic call (Test System: AMES SALMONELLA TYPHIMURIUM, Strain/Indicator: TA100, Metabolic Activation: RAT LIVER S-9, PHENOBARBITAL AND BETA-NAPHTHOFLAVONE, Method: PREINCUBATION) was “inactive; negative”, the mutagenic call (Test System: AMES SALMONELLA TYPHIMURIUM, Strain/Indicator: TA100, Metabolic Activation: RAT, LIVER, S-9, AROCLOR 1254, Method: STANDARD PLATE) was “inactive; negative” and the mutagenic call (Test System: AMES SALMONELLA TYPHIMURIUM, Strain/Indicator: TA100, Metabolic Activation: S-9, Method: STANDARD PLATE) was “inactive; negative”. The mutagenic call (Test System: AMES SALMONELLA TYPHIMURIUM, Strain/Indicator: TA1535, Metabolic Activation: HAMSTER, LIVER, S-9, AROCLOR 1254, Method: STANDARD PLATE) was “inactive; negative”, the mutagenic call [3] was “inactive; negative” and the mutagenic call (Test System: AMES SALMONELLA TYPHIMURIUM, Strain/Indicator: TA1535, Metabolic Activation: NONE, Method: STANDARD PLATE) was “inactive; negative”. The mutagenic call (Test System: AMES SALMONELLA TYPHIMURIUM, Strain/Indicator: TA1535, Metabolic Activation: RAT LIVER S-9, PHENOBARBITAL AND BETA-NAPHTHOFLAVONE, Method: PREINCUBATION) was “inactive; negative”, the mutagenic call (Test System: AMES SALMONELLA TYPHIMURIUM, Strain/Indicator: TA1535, Metabolic Activation: RAT, LIVER, S-9, AROCLOR 1254, Method: STANDARD PLATE) was “inactive; negative” and the mutagenic call (Test System: AMES SALMONELLA TYPHIMURIUM, Strain/Indicator: TA1537, Metabolic Activation: HAMSTER, LIVER, S-9, AROCLOR 1254, Method: STANDARD PLATE) was “inactive; negative”. The mutagenic call (Test System: AMES SALMONELLA TYPHIMURIUM, Strain/Indicator: TA1537, Metabolic Activation: NONE, Method: PREINCUBATION) was “inactive; negative”, the mutagenic call (Test System: AMES SALMONELLA TYPHIMURIUM, Strain/Indicator: TA1537, Metabolic Activation: RAT LIVER S-9, PHENOBARBITAL AND BETA-NAPHTHOFLAVONE, Method: PREINCUBATION) was “inactive; negative” and the mutagenic call (Test System: AMES SALMONELLA TYPHIMURIUM, Strain/Indicator: TA1537, Metabolic Activation: RAT, LIVER, S-9, AROCLOR 1254, Method: STANDARD PLATE) was “inactive; negative”. For the same compound, the mutagenic call (Test System: AMES SALMONELLA TYPHIMURIUM, Strain/Indicator: TA1538, Metabolic Activation: HAMSTER, LIVER, S-9, AROCLOR 1254, Method: STANDARD PLATE) was “inactive; negative”, the mutagenic call (Test System: AMES SALMONELLA TYPHIMURIUM, Strain/Indicator: TA1538, Metabolic Activation: NONE, Method: PREINCUBATION) was “inactive; negative” and the mutagenic call (Test System: AMES SALMONELLA TYPHIMURIUM, Strain/Indicator: TA1538, Metabolic Activation: NONE, Method: STANDARD PLATE) was “inactive; negative”. The mutagenic call (Test System: AMES SALMONELLA TYPHIMURIUM, Strain/Indicator: TA1538, Metabolic Activation: RAT LIVER S-9, PHENOBARBITAL AND BETA-NAPHTHOFLAVONE, Method: PREINCUBATION) was “inactive; negative”, the mutagenic call (Test System: AMES SALMONELLA TYPHIMURIUM, Strain/Indicator: TA1538, Metabolic Activation: RAT, LIVER, S-9, AROCLOR 1254, Method: STANDARD PLATE) was “inactive; negative” and the mutagenic call (Test System: E.COLI, Strain/Indicator: WP2UVRA, Metabolic Activation: NONE, Method: PREINCUBATION) was “inactive; negative”. The mutagenic call (Test System: E.COLI, Strain/Indicator: WP2UVRA, Metabolic Activation: RAT LIVER S-9, PHENOBARBITAL AND BETA-NAPHTHOFLAVONE, Method: PREINCUBATION) was “inactive; negative”, the mutagenic call (Test System: MOUSE LYMPHOMA, Strain/Indicator: L5178Y (TK+/TK-), Metabolic Activation: NONE, Method: SUSPENSION/PLATE) was “inactive; negative. reevaluation of results: negative” and the mutagenic call (Test System: MOUSE LYMPHOMA, Strain/Indicator: L5178Y (TK+/TK-), Metabolic Activation: RAT, LIVER, S-9, AROCLOR 1254, Method: SUSPENSION/PLATE) was “inactive; negative. reevaluation of results: inconclusive”.
For `CC(C)[C@@](O)(C(=O)OCC1=CCN2CC[C@@H](O)[C@@H]12)[C@H](C)O`, the mutagenic call (Test System: AMES SALMONELLA TYPHIMURIUM, Strain/Indicator: TA100, Metabolic Activation: HAMSTER, LIVER, S-9, PCB, Method: PREINCUBATION) was “inactive; negative” and the mutagenic call (Test System: AMES SALMONELLA TYPHIMURIUM, Strain/Indicator: TA100, Metabolic Activation: RAT, LIVER, S-9, PCB, Method: PREINCUBATION) was “inactive; negative”.
